Measured values as given in patent US9278970B2, “Co-crystals of tadalafil and a hydroxy-substituted benzoic acid coformer as phosphodiesterase type 5 inhibitors” (Laboratorios Senosiain S.A. de C.V., priority 2012, dated 2016).

Experiments:
[1] = physicochemical stability of the new solid forms
Excerpt: Although there is good understanding of the physicochemistry of the cocrystal components, their elucidation a priori is almost impossible, as the interactions which determine the structure are relatively weak and the number of degrees of freedom for the optimization problem is immeasurable. For these reasons, the new solid forms disclosed herein are not obvious to a person skilled in the art. Further, the cocrystals and solvates of the present invention have shown physicochemical stability, allowing their use in pharmaceutical compositions. The present invention worked, among others, with the following coformers: aliphatic carboxylic acids, aromatic carboxylic acids, aromatic hydroxycarboxylic acids, aliphatic hydroxycarboxylic acids, aromatic heterocyclic amides, amino acid derivatives, polyphenols, alcohols such as xylitol and aromatic aminocarboxylic acids such as 3-aminobenzoic acid. A new solid form (NSF) which was stable with 3-hydroxybenzoic acid was found in the different assays of the present invention. The obtained NSF corresponds to a compound wherein the neutral coformer has a hydroxyl group and a carboxylic acid, and further contains a phenyl group as part of its structure.

[2] = in therapeutic concentrations; cited from earlier work
[3] = cited from earlier work
[4] = neutral form, D+ isomer (6R,12R); cited from earlier work

Row | SMILES | physicochemical stability of the solid form [1] | plasmatic tadalafil bonded to proteins [2] | eliminated in faeces, predominantly as metabolites ([3]; faeces) | eliminated in urine, predominantly as metabolites ([3]; urine) | solubility in water [4]
1 | CN1CC(=O)N2[C@H](c3ccc4c(c3)OCO4)c3[nH]c4ccccc4c3C[C@@H]2C1=O.O=C(O)c1cccc(O)c1 | stable |  |  |  | 
2 | CN1CC(=O)N2[C@H](c3ccc4c(c3)OCO4)c3[nH]c4ccccc4c3C[C@@H]2C1=O [tadalafil] |  | 94% | approximately 61 % of the dose | approximately 36 % of the dose | almost insoluble in water
